Values quoted from earlier work, collected in US20240189327A1, “SYNERGISTIC CANNABINOID ESTERS, THEIR SALTS AND USES THEREOF” (LONDON PHARMACEUTICALS AND RESEARCH CORPORATION, priority 2021, published 2024).

What was measured:
[1] = in vivo
intraocular pressure = settings: normotensive rabbit
[2] = pH 7.4

Compound: N[C@H]1C(O)O[C@H](CO)[C@@H](O)[C@@H]1O (stereo partly shown) [glucosamine]
- time to maximum plasma level [1]: 50 min

Compound: C=C(C)[C@@H]1CCC(C)=C[C@H]1c1c(O)cc(CCCCC)cc1O [CBD, cannabidiol]
- time to maximum plasma level [1]: 240 to 360 min

Compound: CCCCC/C=C\C/C=C\C/C=C\C/C=C\CCCC(=O)NCCOP(=O)(O)O [phosphate ester pro-drug of anandamide]
- effect on intraocular pressure (intraocular pressure): reduced the intraocular pressure
- increase of aqueous solubility over the parent endocannabinoids [2]: > 16 500 fold
